≈ marks a conversion by molar mass, not a printed value. Calls of active or inactive are those of the source. The calls are words filed in the database; no cut-off is given here.
Tests used:
[1] = Cytotoxicity against human THP1 cells after 24 hrs by resazurin assay; format: cell-based, THP-1; conditions: read-out: MIC
[2] = tested on: Mycobacterium tuberculosis; assay: Antimicrobial activity against Mycobacterium tuberculosis H37Rv ATCC 27294 after 5 days by microdilution method; format: functional; conditions: H37Rv ATCC 27294, 120 h
[3] = tested on: Haemophilus influenzae; assay: Antimicrobial activity against Haemophilus influenzae ARC446 after 5 days by microdilution method; format: functional; conditions: ARC446, 120 h
[4] = tested on: Mycobacterium tuberculosis; assay: Antimicrobial activity against Mycobacterium tuberculosis ATCC 25618 after 2 to 3 weeks; format: functional, organism-based
[5] = tested on: Mycobacterium tuberculosis; assay: Antimicrobial activity against Mycobacterium tuberculosis Harlingen after 2 to 3 weeks; format: functional, organism-based
[6] = tested on: Mycobacterium tuberculosis; assay: Antimicrobial activity against ofloxacin Mycobacterium tuberculosis 12119 after 2 to 3 weeks; format: functional, organism-based
[7] = tested on: Escherichia coli; assay: Antimicrobial activity against Escherichia coli ARC524 after 5 days by microdilution method; format: functional; conditions: ARC524, 120 h
[8] = tested on: Mycobacterium tuberculosis; assay: Antimicrobial activity against Mycobacterium tuberculosis JALMA clinical isolate after 2 to 3 weeks; format: functional, organism-based
[9] = tested on: Candida albicans; assay: Antimicrobial activity against Candida albicans ARC526 after 5 days by microdilution method; format: functional; conditions: ARC526, 120 h
[10] = Lipophilicity, log D of the compound; format: physicochemical; conditions: octanol/water
[11] = tested on: Escherichia coli; assay: Antimicrobial activity against Escherichia coli ARC523 after 5 days by microdilution method; format: functional; conditions: ARC523, 120 h
[12] = tested on: Streptococcus pneumoniae; assay: Antimicrobial activity against Streptococcus pneumoniae ARC548 after 5 days by microdilution method; format: functional; conditions: ARC548, 120 h
[13] = tested on: Mycobacterium tuberculosis; assay: Antimicrobial activity against Mycobacterium tuberculosis 97A clinical isolate after 2 to 3 weeks; format: functional, organism-based
[14] = tested on: Pseudomonas aeruginosa; assay: Antimicrobial activity against Pseudomonas aeruginosa ARC546 after 5 days by microdilution method; format: functional; conditions: ARC546, 120 h
[15] = tested on: Mycobacterium tuberculosis; assay: Antimicrobial activity against Mycobacterium tuberculosis ATCC 35811 after 2 to 3 weeks; format: functional, organism-based
[16] = tested on: Klebsiella pneumoniae; assay: Antimicrobial activity against Klebsiella pneumoniae ARC1865 after 5 days by microdilution method; format: functional; conditions: ARC1865, 120 h
[17] = tested on: Mycobacterium tuberculosis; assay: Antimicrobial activity against Mycobacterium tuberculosis DKU220 clinical isolate after 2 to 3 weeks; format: functional, organism-based
[18] = tested on: Mycobacterium tuberculosis; assay: Antimicrobial activity against Mycobacterium tuberculosis Erdman after 2 to 3 weeks; format: functional, organism-based
[19] = tested on: Staphylococcus aureus; assay: Antimicrobial activity against Staphylococcus aureus ARC517 after 5 days by microdilution method; format: functional; conditions: ARC517, 120 h
[20] = tested on: Mycobacterium tuberculosis; assay: Antimicrobial activity against Mycobacterium tuberculosis DKU211 clinical isolate after 2 to 3 weeks; format: functional, organism-based
[21] = tested on: Haemophilus influenzae; assay: Antimicrobial activity against Haemophilus influenzae ARC158 after 5 days by microdilution method; format: functional; conditions: ARC158, 120 h
[22] = tested on: Mycobacterium tuberculosis; assay: Antimicrobial activity against Mycobacterium tuberculosis Beijing after 2 to 3 weeks; format: functional, organism-based
[23] = target: Cytochrome P450 2C19 (Homo sapiens, UniProt P33261); assay: Inhibition of CYP2C19 (unknown origin); format: ADME
Chain of Cytochrome P450 2C19 (P33261 whole entry): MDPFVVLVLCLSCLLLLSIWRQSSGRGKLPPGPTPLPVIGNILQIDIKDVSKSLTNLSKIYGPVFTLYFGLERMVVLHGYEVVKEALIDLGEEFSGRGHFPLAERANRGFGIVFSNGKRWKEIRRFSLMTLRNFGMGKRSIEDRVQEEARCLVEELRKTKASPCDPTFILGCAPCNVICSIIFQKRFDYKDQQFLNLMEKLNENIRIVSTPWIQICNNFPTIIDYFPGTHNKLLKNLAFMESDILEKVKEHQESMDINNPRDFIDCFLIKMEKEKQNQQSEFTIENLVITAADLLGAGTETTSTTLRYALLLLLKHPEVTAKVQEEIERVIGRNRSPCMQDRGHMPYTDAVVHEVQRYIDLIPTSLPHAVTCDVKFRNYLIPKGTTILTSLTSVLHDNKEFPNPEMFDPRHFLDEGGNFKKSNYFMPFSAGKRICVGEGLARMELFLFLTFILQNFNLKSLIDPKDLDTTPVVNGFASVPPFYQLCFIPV

[24] = tested on: Pseudomonas aeruginosa; assay: Antimicrobial activity against Pseudomonas aeruginosa ARC545 after 5 days by microdilution method; format: functional; conditions: ARC545, 120 h
[25] = tested on: Mycobacterium tuberculosis; assay: Antimicrobial activity against Mycobacterium tuberculosis DKU 76 clinical isolate after 2 to 3 weeks; format: functional, organism-based
[26] = tested on: Streptococcus pyogenes; assay: Antimicrobial activity against Streptococcus pyogenes after 5 days by microdilution method; format: functional; conditions: 120 h

## COc1ccc(-c2ccc(COc3ncccc3C(N)=O)nc2)c(F)c1
[1]
  MCC at 24 h: > 50 µM
[2]
  MIC: 16.9 µM (≈ 5.97 µg/mL)

## COCCOc1ccc(-c2ccc(COc3ncccc3C(=O)NC3CCN(C)CC3)nc2)c(C)c1
[1]
  MCC at 24 h: > 50 µM
[2]
  MIC: 8.1 µM (≈ 3.97 µg/mL)

## COCCOc1ccc(-c2ccc(COc3ncccc3C(=O)N3CCC(O)C3)nc2)c(C)c1 (stereo unspecified)
[1]
  MCC at 24 h: > 50 µM
[2]
  MIC: > 75 µM

## COCCOc1ccc(-c2ccc(COc3ncccc3C(=O)N(C)C)nc2)c(C)c1
[1]
  MCC at 24 h: > 50 µM
[2]
  MIC: > 75 µM

## COCCOc1ccc(-c2ccc(COc3nccnc3C(N)=O)nc2)c(C)c1
[1]
  MCC at 24 h: > 50 µM
[2]
  MIC: 40.5 µM (≈ 16 µg/mL)

## COc1ccc(-c2ccc(COc3ncccc3C(N)=O)cc2)c(C)n1
[1]
  MCC at 24 h: > 50 µM
[2]
  MIC: > 100 µM

## CNC(=O)c1cccnc1OCc1ccc(-c2ccc(OCCOC)cc2C)cn1
[1]
  MCC at 24 h: > 50 µM
[2]
  MIC: 1.2 µM (≈ 0.489 µg/mL)

## COc1ccc(-c2ccc(COc3ncccc3C(N)=O)nc2)c(C(F)(F)F)c1
[2]
  MIC: 39.7 µM (≈ 16 µg/mL)

## Cc1cc(OCCN2CCOCC2)ccc1-c1ccc(COc2ncccc2C(N)=O)nc1
[1]
  MCC at 24 h: > 50 µM
[2]
  MIC: 8.9 µM (≈ 3.99 µg/mL)

## Cn1ccnc1-c1ccc(COc2ncccc2C(N)=O)cc1
[1]
  MCC at 24 h: > 50 µM
[2]
  MIC: > 100 µM

## NC(=O)c1cccnc1OCc1ncc(-c2ccc(OCCCF)cc2Cl)cn1
[3]
  MIC80: > 60 µM
[4]
  Activity: Active
[5]
  Activity: Active
[6]
  Activity: Active
[7]
  MIC80: > 60 µM
[8]
  Activity: Active
[9]
  MIC80: > 60 µM
[10]
  logD: 2.8
[1]
  MCC at 24 h: > 250 µM
[11]
  MIC80: > 60 µM
[12]
  MIC80: > 60 µM
[13]
  Activity: Active
[14]
  MIC80: > 60 µM
[2]
  MIC: 0.12 µM (≈ 0.05 µg/mL)
[15]
  Activity: Active
[16]
  MIC80: > 60 µM
[17]
  Activity: Active
[18]
  Activity: Active
[19]
  MIC80: > 60 µM
[20]
  Activity: Active
[21]
  MIC80: > 60 µM
[22]
  Activity: Active
[23]
  IC50: 18 µM
[24]
  MIC: > 60 µM
[25]
  Activity: Active
[26]
  MIC80: > 60 µM

## COCCOc1ccc(-c2cnc(COc3ncccc3C(N)=O)nc2)c(Cl)c1
[1]
  MCC at 24 h: > 250 µM
[2]
  MIC: 0.47 µM (≈ 0.195 µg/mL)

## NC(=O)c1cccnc1OCc1ccc(-c2ccc(OCC3CCCO3)cc2Cl)cn1 (stereo unspecified)
[3]
  MIC80: > 60 µM
[7]
  MIC80: > 60 µM
[9]
  MIC80: > 60 µM
[10]
  logD: 2.8
[1]
  MCC at 24 h: > 50 µM
[11]
  MIC80: > 60 µM
[12]
  MIC80: > 60 µM
[14]
  MIC80: > 60 µM
[2]
  MIC: 1.1 µM (≈ 0.484 µg/mL)
[16]
  MIC80: > 60 µM
[19]
  MIC80: > 60 µM
[21]
  MIC80: > 60 µM
[24]
  MIC: > 60 µM
[26]
  MIC80: > 60 µM

Source: ChEMBL document CHEMBL3286119, “Biarylmethoxy Nicotinamides As Novel and Specific Inhibitors of Mycobacterium tuberculosis” (ACS Med Chem Lett, 2014)
